Here are results for 1 molecule from publication PMC9133015 (Nature Communications, 2022).

Assay in all cases: Kinase inhibitor specificity profiling (Reaction Biology Corporation)
What all share (format): biochemical
Common to all, as to parameters: % Enzyme Activity (relative to DMSO controls): concentration or dose not given beside the values

For experiment [1], the target named is T1, panel of 370 protein kinases (Homo sapiens, UniProt Q13470).
T1 construct: purchased Reaction Biology Corporation (assay service)
The note with it: 2 h, kinase TNK1; read-out: % Enzyme Activity (relative to DMSO controls).

Experiment [2] addresses T2, panel of 370 protein kinases (Homo sapiens, UniProt P36894).
T2 construct: purchased Reaction Biology Corporation (assay service)
Conditions: 2 h, kinase ALK3/BMPR1A; read-out: % Enzyme Activity (relative to DMSO controls).

Experiment [3] deals with T3, panel of 370 protein kinases (Homo sapiens, UniProt Q12866).
T3 construct: purchased Reaction Biology Corporation (assay service)
Conditions: 2 h, kinase c-MER; read-out: % Enzyme Activity (relative to DMSO controls).

In experiment [4] the target is T4, panel of 370 protein kinases (Homo sapiens, UniProt Q5S007).
T4 construct: purchased Reaction Biology Corporation (assay service)
Conditions: 2 h, kinase LRRK2; read-out: % Enzyme Activity (relative to DMSO controls).

The target in experiment [5] is T5, panel of 370 protein kinases (Homo sapiens, UniProt Q9Y2U5).
T5 construct: purchased Reaction Biology Corporation (assay service)
The note with it: 2 h, kinase MEKK2; read-out: % Enzyme Activity (relative to DMSO controls).

Experiment [6] concerns the target T6, panel of 370 protein kinases (Homo sapiens, UniProt P49761).
T6 construct: purchased Reaction Biology Corporation (assay service)
Conditions: 2 h, kinase CLK3; read-out: % Enzyme Activity (relative to DMSO controls).

Experiment [7] concerns the target T7, panel of 370 protein kinases (Homo sapiens, UniProt Q00536).
T7 construct: purchased Reaction Biology Corporation (assay service)
The note with it: 2 h, kinase CDK16/cyclin Y (PCTAIRE); read-out: % Enzyme Activity (relative to DMSO controls).

Experiment [8] deals with T8, panel of 370 protein kinases (Homo sapiens, UniProt Q96BR1).
T8 construct: purchased Reaction Biology Corporation (assay service)
T8 sequence (Q96BR1 whole entry): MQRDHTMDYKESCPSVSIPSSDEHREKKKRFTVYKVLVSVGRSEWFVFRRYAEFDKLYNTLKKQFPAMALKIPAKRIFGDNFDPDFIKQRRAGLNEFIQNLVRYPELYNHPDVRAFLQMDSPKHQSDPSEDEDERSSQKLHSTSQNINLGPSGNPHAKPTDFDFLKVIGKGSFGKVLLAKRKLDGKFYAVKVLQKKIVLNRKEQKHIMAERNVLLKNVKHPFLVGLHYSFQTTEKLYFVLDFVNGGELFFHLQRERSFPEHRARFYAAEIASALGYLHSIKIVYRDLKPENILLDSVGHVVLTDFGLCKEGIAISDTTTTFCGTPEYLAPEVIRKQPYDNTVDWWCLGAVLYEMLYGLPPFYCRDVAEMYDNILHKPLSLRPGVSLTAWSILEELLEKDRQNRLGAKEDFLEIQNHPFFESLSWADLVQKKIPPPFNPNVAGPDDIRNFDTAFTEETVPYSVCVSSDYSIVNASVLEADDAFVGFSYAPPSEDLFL
The note with it: 2 h, kinase SGK3/SGKL; read-out: % Enzyme Activity (relative to DMSO controls).

The target of experiment [9] is T9, panel of 370 protein kinases (Homo sapiens, UniProt P31749).
T9 construct: purchased Reaction Biology Corporation (assay service)
T9 sequence (P31749 whole entry): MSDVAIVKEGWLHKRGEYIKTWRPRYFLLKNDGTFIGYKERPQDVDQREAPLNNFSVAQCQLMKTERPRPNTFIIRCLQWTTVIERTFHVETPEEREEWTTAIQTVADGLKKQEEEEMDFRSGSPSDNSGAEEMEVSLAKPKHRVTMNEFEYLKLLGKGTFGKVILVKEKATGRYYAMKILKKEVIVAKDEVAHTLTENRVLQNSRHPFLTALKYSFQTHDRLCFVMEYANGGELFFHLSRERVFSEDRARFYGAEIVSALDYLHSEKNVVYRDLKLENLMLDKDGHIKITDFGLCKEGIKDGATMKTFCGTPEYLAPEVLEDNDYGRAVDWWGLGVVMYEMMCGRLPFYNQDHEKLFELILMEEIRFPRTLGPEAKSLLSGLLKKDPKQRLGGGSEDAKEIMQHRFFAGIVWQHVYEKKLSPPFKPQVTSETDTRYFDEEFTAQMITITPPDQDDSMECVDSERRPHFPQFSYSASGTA
Conditions: 2 h, kinase AKT1; read-out: % Enzyme Activity (relative to DMSO controls).

The target in experiment [10] is T10, panel of 370 protein kinases (Homo sapiens, UniProt O14757).
T10 construct: purchased Reaction Biology Corporation (assay service)
T10 sequence (O14757 whole entry): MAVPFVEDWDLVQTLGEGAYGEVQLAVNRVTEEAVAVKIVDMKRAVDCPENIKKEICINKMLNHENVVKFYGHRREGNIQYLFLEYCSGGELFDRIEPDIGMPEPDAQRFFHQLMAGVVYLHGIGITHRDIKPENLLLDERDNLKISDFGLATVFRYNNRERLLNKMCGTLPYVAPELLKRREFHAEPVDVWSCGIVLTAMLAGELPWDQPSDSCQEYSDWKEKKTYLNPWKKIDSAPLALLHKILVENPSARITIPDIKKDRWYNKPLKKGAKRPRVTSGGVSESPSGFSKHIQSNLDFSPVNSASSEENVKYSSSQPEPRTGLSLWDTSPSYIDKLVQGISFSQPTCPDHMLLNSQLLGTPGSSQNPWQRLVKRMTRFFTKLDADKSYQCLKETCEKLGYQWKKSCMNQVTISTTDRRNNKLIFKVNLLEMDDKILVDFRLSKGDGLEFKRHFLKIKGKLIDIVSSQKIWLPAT
Conditions: kinase CHK1.

Experiment [11] addresses T11, panel of 370 protein kinases (Homo sapiens, UniProt Q8N5S9).
T11 construct: purchased Reaction Biology Corporation (assay service)
Conditions: 2 h, kinase CAMKK1; read-out: % Enzyme Activity (relative to DMSO controls).

The target of experiment [12] is T12, panel of 370 protein kinases (Homo sapiens, UniProt Q9BWU1).
T12 construct: purchased Reaction Biology Corporation (assay service)
T12 sequence (Q9BWU1 whole entry): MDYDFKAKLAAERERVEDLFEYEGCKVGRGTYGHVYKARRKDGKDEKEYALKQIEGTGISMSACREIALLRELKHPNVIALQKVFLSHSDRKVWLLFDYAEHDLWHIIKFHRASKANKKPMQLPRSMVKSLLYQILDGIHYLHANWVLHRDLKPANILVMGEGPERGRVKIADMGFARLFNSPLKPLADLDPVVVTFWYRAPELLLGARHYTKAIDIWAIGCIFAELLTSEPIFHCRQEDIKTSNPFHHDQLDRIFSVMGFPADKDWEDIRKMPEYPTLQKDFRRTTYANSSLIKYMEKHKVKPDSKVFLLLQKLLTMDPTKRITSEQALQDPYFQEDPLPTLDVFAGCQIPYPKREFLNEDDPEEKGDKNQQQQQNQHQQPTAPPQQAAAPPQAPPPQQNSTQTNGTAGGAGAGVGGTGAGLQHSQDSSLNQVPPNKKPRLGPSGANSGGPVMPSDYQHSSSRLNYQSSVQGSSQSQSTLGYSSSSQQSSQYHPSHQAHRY
The note with it: kinase CDK19/cyclin C.

Experiment [13] concerns the target T13, panel of 370 protein kinases (Homo sapiens, UniProt Q05513).
T13 construct: purchased Reaction Biology Corporation (assay service)
Conditions: 2 h, kinase PKCzeta; read-out: % Enzyme Activity (relative to DMSO controls).

Experiment [14] has as its target T14, panel of 370 protein kinases (Homo sapiens, UniProt P45983).
T14 construct: purchased Reaction Biology Corporation (assay service)
The note with it: kinase JNK1.

The target of experiment [15] is T15, panel of 370 protein kinases (Homo sapiens, UniProt Q96PY6).
T15 construct: purchased Reaction Biology Corporation (assay service)
The note with it: 2 h, kinase NEK1; read-out: % Enzyme Activity (relative to DMSO controls).

Experiment [16] addresses T16, panel of 370 protein kinases (Homo sapiens, UniProt O94804).
T16 construct: purchased Reaction Biology Corporation (assay service)
The note with it: kinase LOK/STK10.

Experiment [17] addresses T17, panel of 370 protein kinases (Homo sapiens, UniProt P00519).
T17 construct: purchased Reaction Biology Corporation (assay service)
The note with it: 2 h, kinase ABL1; read-out: % Enzyme Activity (relative to DMSO controls).

The target of experiment [18] is T18, panel of 370 protein kinases (Homo sapiens, UniProt Q99683).
T18 construct: purchased Reaction Biology Corporation (assay service)
The note with it: 2 h, kinase ASK1/MAP3K5; read-out: % Enzyme Activity (relative to DMSO controls).

Experiment [19] has as its target T19, panel of 370 protein kinases (Homo sapiens, UniProt P45984).
T19 construct: purchased Reaction Biology Corporation (assay service)
The note with it: kinase JNK2.

Experiment [20] addresses T20, panel of 370 protein kinases (Homo sapiens, UniProt Q8IVT5).
T20 construct: purchased Reaction Biology Corporation (assay service)
Conditions: 2 h, kinase KSR1; read-out: % Enzyme Activity (relative to DMSO controls).

In experiment [21] the target is T21, panel of 370 protein kinases (Homo sapiens, UniProt O94806).
T21 construct: purchased Reaction Biology Corporation (assay service)
Conditions: 2 h, kinase PKCnu/PRKD3; read-out: % Enzyme Activity (relative to DMSO controls).

For experiment [22], the target named is T22, panel of 370 protein kinases (Homo sapiens, UniProt P29322).
T22 construct: purchased Reaction Biology Corporation (assay service)
The note with it: 2 h, kinase EPHA8; read-out: % Enzyme Activity (relative to DMSO controls).

The structures appear in SMILES notation. Values joined by “and” are separate entries in the source; they are usually repeats but may differ in a detail not shown here. Equal values may be shown once.

T19 sequence (P45984 whole entry): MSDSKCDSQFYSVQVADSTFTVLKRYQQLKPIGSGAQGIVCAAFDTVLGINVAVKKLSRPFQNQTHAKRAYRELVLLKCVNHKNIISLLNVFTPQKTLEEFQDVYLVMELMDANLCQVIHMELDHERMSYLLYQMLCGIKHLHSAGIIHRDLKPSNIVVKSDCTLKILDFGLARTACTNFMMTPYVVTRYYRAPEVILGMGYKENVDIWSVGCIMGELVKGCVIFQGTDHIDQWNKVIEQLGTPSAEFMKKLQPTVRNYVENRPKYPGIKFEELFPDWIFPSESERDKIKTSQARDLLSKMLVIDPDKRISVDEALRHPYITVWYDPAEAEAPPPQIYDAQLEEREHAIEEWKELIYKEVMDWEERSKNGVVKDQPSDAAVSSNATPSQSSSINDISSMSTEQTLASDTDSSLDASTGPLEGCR
T16 sequence (O94804 whole entry): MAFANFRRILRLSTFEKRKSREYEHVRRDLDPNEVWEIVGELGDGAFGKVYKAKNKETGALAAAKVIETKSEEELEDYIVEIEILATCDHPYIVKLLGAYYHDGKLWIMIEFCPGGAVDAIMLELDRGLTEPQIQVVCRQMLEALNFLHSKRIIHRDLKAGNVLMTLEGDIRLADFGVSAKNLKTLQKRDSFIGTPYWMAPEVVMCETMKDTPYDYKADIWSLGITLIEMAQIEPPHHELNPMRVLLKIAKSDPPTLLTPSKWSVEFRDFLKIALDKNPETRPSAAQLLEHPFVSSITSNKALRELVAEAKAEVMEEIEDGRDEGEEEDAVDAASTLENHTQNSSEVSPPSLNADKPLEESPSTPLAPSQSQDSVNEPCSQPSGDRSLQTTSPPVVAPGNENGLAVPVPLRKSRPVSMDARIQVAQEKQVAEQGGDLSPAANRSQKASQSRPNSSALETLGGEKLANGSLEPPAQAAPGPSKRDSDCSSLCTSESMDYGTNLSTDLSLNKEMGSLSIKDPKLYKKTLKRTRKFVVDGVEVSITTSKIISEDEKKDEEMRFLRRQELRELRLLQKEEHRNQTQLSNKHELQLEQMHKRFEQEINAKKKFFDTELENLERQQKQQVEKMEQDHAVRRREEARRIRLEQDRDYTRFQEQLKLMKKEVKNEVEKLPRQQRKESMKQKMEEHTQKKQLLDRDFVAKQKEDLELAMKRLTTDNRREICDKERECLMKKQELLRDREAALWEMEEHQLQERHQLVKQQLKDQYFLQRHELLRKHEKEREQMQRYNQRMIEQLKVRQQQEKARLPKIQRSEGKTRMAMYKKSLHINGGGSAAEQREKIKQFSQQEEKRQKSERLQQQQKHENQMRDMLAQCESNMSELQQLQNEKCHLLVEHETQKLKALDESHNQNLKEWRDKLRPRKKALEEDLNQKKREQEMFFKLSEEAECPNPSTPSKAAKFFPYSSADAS
T14 sequence (P45983 whole entry): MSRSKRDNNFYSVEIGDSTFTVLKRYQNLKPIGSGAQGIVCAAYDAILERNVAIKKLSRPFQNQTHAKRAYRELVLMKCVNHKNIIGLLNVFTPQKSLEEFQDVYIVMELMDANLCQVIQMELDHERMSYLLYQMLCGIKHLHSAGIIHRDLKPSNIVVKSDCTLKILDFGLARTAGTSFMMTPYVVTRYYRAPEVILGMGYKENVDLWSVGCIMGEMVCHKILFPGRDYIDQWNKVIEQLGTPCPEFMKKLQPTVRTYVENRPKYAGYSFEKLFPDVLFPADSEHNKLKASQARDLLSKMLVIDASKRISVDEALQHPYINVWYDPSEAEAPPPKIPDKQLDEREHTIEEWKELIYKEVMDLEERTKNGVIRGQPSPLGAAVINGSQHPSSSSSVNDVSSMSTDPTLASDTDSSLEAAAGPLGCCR
T7 sequence (Q00536 whole entry): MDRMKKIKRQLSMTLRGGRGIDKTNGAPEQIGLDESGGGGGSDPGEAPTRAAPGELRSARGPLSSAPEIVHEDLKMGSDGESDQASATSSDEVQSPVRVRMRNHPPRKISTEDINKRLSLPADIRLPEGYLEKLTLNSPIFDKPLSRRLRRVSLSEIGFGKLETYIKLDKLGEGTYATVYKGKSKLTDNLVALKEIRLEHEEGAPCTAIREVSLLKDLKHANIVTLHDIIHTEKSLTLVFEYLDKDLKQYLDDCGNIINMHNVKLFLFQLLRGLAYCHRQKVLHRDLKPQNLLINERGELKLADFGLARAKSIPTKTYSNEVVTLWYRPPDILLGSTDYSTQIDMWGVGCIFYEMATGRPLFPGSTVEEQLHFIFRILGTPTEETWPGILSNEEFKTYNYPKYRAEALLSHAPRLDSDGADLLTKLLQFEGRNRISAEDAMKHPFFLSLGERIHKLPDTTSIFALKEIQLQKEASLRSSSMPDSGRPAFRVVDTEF
T11 sequence (Q8N5S9 whole entry): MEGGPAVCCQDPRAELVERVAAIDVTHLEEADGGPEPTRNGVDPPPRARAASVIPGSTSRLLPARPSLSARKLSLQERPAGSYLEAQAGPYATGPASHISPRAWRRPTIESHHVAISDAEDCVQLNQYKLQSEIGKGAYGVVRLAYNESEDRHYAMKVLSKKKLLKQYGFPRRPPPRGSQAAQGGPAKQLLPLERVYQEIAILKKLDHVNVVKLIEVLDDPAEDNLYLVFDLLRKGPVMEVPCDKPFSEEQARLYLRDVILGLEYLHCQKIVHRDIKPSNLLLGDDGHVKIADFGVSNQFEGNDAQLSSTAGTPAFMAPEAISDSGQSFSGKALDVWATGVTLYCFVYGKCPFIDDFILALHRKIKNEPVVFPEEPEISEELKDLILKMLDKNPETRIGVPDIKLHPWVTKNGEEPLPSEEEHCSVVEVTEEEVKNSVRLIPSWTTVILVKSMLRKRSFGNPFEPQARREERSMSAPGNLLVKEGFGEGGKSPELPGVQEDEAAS

Consider `CCN1CCN(C(=O)c2ccc(Nc3ncc(F)c(-c4ccc5nc(N(C)C)sc5c4)n3)nc2)CC1` [YK-2-69], for which the remaining activity at 1 µM in experiment [1] came to 95.3%; in experiment [2], 168%; in experiment [3], 96.8%; in experiment [4], 72%; in experiment [5], 113%; in experiment [6], 80.5%. For the same molecule, the remaining activity at 1 µM in [7] turned out to be 85.7%; in [8] it was 95.6%; in experiment [9], 98.3%; in experiment [11], 95.7%; in [13], 83.8%; in experiment [15], 69.2%. The remaining activity at 1 µM in [17] was determined as 85%; in [18], 106%; in [20], 94.3%; in experiment [21], 75.6%; in [22] it was 102%. Also, the “% Enzyme Activity (relative to DMSO controls)” value in experiment [10] is 90.61% and 88.71%; in experiment [12] it was 59.42% and 58.05%; in [14] it was 71.84% and 70.88%; in experiment [16] it was 97.88% and 97.48%; in experiment [19], 83.83% and 82.64%.
